According to ChEMBL document CHEMBL5532678, “Comprehensive Insights that Targeting PIM for Cancer Therapy: Prospects and Obstacles” (J Med Chem, 2024):
Blank lines part the entries; values can stand above or below the compound they belong to.

Legend:
[1] = biological target: T1, Serine/threonine-protein kinase pim-2 (Homo sapiens, UniProt Q9P1W9); assay: Inhibition of PIM2 (unknown origin) by FRET based Z-LYTE kinase assay
[2] = biological target: T2, Serine/threonine-protein kinase pim-3 (Homo sapiens, UniProt Q86V86); assay: Inhibition of PIM3 (unknown origin) by FRET based Z-LYTE kinase assay
[3] = biological target: T1, Serine/threonine-protein kinase pim-2; assay: Binding affinity to PIM2 (unknown origin) assessed as inhibition constant
[4] = biological target: T3, Serine/threonine-protein kinase pim-1 (Homo sapiens, UniProt P11309); assay: Binding affinity to PIM1 (unknown origin) assessed as inhibition constant
[5] = biological target: T2, Serine/threonine-protein kinase pim-3
[6] = biological target: T1, Serine/threonine-protein kinase pim-2
[7] = biological target: T3, Serine/threonine-protein kinase pim-1
MCF7 [8] = assay: Cytotoxicity against human MCF7 cells assessed as reduction in cell viability by MTT assay; type: functional, cell-based
[9] = biological target: T3, Serine/threonine-protein kinase pim-1; assay: Inhibition of human PIM1 by discoverX kinome scan assay
[10] = biological target: T3, Serine/threonine-protein kinase pim-1; assay: Inhibition of human PIM1 using KKRNRTLTK as substrate in presence of [gamma-33P]-ATP by hotspot kinase assay
[11] = Inhibition of PI3K (unknown origin); set-up: species or system Homo sapiens
[12] = biological target: Serine/threonine-protein kinase mTOR (Homo sapiens, UniProt P42345); assay: Inhibition of mTOR (unknown origin)
[13] = biological target: T1, Serine/threonine-protein kinase pim-2; assay: Inhibition of human PIM2 by ADP-Glo luminescent assay
[14] = biological target: T3, Serine/threonine-protein kinase pim-1; assay: Inhibition of human PIM1 by ADP Glo luminescent assay
MV4-11 = assay: Antiproliferative activity against human MV4-11 cells assessed as inhibition of cell growth incubated for 72 hrs by Celltiter-glo assay; type: functional, cell-based; settings: MV4-11, 72 h
HCT-116 = assay: Antiproliferative activity against human HCT-116 cells assessed as inhibition of cell growth incubated for 72 hrs by celltiter-glo assay; type: functional, cell-based; settings: HCT-116, 72 h
MCF7 [15] = assay: Antiproliferative activity against human MCF7 cells assessed as reduction in cell growth incubated for 48 hrs by MTT assay; type: functional, cell-based; settings: MCF7, 48 h
PC-3 = assay: Anticancer activity against human PC-3 cells assessed as inhibition of cell growth incubated for 24 hrs by MTT assay; type: functional, cell-based; settings: PC-3, 24 h
HepG2 = assay: Antiproliferative activity against human HepG2 cells assessed as inhibition of cell growth incubated for 72 hrs by MTT assay; type: functional, cell-based; settings: HepG2, 72 h
[16] = biological target: T2, Serine/threonine-protein kinase pim-3; assay: Inhibition of N-terminal GST-tagged full length human PIM3 (1 to 326 residues) expressed in baculovirus expression system using S6K2 peptide as substrate at 1 uM in presence of ATP by Mobility shift assay
[17] = biological target: T1, Serine/threonine-protein kinase pim-2; assay: Inhibition of human full length-His6 tagged PIM2 (1 to 311 residues) expressed in Escherichia coli BL21 (DE3) assessed as inhibition constant using RSRHSSYPAGT as peptide substrate incubated for 10 mins in presence of [gamma-32P]ATP by radiometric scintillation assay
[18] = biological target: T3, Serine/threonine-protein kinase pim-1; assay: Inhibition of human full length-His6 tagged PIM1 (1 to 312 residues) expressed in Escherichia coli BL21 (DE3) using RSRHSSYPAGT as peptide substrate incubated for 10 mins in presence of [gamma-32P]ATP by radiometric scintillation assay
[19] = biological target: T1, Serine/threonine-protein kinase pim-2; assay: Inhibition of N-terminal GST-tagged full length human PIM2 (1 to 311 residues) expressed in baculovirus expression system using S6K2 peptide as substrate at 1 uM in presence of ATP by Mobility shift assay
[20] = biological target: T3, Serine/threonine-protein kinase pim-1; assay: Inhibition of human recombinant PIM1
[21] = biological target: T4, Prostaglandin G/H synthase 2 (Homo sapiens, UniProt P35354); assay: Inhibition of COX2 (unknown origin) fluorescence based analysis
T4 sequence (P35354 whole entry): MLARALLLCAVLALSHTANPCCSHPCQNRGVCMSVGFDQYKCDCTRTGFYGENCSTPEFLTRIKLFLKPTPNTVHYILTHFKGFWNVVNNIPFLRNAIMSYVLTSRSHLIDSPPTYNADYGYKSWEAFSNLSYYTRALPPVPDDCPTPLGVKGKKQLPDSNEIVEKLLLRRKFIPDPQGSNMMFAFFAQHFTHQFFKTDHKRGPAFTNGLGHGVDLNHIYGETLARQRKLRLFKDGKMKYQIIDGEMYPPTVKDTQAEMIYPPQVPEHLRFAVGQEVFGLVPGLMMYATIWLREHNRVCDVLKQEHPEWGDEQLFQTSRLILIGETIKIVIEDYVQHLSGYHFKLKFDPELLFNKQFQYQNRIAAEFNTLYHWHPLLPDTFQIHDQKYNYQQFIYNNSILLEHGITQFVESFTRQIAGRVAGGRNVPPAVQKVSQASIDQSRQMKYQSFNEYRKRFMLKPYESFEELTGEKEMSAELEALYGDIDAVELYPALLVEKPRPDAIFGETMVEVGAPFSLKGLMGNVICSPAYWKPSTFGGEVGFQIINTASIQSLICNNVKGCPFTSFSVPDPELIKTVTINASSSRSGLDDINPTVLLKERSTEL

[22] = biological target: T5, Polyunsaturated fatty acid 5-lipoxygenase (Homo sapiens, UniProt P09917); assay: Inhibition of 5-LOX in human PMNL cells; type: cell-based
T5 sequence (P09917 whole entry): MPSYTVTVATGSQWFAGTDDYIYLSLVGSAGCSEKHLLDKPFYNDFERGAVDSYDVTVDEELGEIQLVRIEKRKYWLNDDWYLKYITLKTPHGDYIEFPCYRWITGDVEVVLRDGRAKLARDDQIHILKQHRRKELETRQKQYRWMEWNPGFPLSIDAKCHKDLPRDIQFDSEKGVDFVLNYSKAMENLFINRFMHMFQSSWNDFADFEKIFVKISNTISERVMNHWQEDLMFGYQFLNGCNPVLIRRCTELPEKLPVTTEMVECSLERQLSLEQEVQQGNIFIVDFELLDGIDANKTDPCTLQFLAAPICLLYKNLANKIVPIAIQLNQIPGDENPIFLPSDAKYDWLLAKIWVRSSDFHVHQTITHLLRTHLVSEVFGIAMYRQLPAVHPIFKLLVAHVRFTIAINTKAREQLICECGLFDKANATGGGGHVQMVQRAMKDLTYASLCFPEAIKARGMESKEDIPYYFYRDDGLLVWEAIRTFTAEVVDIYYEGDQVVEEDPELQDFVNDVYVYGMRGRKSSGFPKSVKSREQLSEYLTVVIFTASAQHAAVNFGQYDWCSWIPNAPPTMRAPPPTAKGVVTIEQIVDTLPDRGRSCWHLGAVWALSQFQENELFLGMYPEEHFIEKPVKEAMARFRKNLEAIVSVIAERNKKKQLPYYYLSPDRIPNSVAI

[23] = biological target: Prostaglandin G/H synthase 1 (Homo sapiens, UniProt P23219); assay: Inhibition of COX1 (unknown origin) fluorescence based analysis
[24] = biological target: T3, Serine/threonine-protein kinase pim-1; assay: Inhibition of PIM1 (unknown origin) by FRET based Z-LYTE kinase assay
[25] = biological target: Dual specificity protein kinase CLK1 (Homo sapiens, UniProt P49759); assay: Inhibition of CLK1 (unknown origin) using GRSRSRSRSRSRSRS as substrate incubated for 15 mins in presence of ATP by gamma32P-ATP based analysis

SMILES: Cc1ccc(-c2cncc(NCCN(C)C)n2)cc1CC1SC(=O)NC1=O (configuration not stated)
IC50 [1]: 6 nM | IC50 [2]: 6 nM

SMILES: CC(C)(C)Nc1nnc(-c2ccc3[nH]cc(-c4nccc(C5CC5)n4)c3c2)o1
Ki [3]: 0.28 nM | Ki [4]: 0.55 nM

SMILES: CC(C)(O)[C@H]1CC[C@H](Nc2ccc3ncc(-c4cccc(C(F)(F)F)c4)n3n2)CC1 [NUVISERTIB]
IC50 [5]: 42 nM | IC50 [6]: 239 nM | IC50 [7]: 5 nM

SMILES: COc1ncc2cc1NS(=O)(=O)c1ccc(F)c(c1)C(=O)NCC1=CC=C(S1)c1ncnc3c1SC2=C3C
IC50 [11]: 0.13 nM | IC50 [12]: 74500 nM

SMILES: Cc1nc2cccc3c2nc1N[C@H](C)/C=C\C[C@H]1CNC(=O)c2cc-3[nH]c21
IC50 [13]: 500 nM | IC50 [14]: 130 nM | IC50 (MV4-11): 35500 nM | IC50 (HCT-116): 45300 nM

SMILES: N#Cc1c(-c2ccco2)cc(-c2ccc(N3C(=O)c4ccccc4C3=O)cc2)nc1N
IC50 (MCF7 [15]): 19700 nM | IC50 (PC-3): 33400 nM | IC50 (HepG2): 31100 nM | IC50 [9]: 630 nM

SMILES: C[C@@H]1CCCN(c2c(/C=C3\SC(=O)NC3=O)cccc2-c2ccccc2)C1
IC50 [5]: 3 nM | IC50 [6]: 5 nM | IC50 [7]: 3 nM

SMILES: NCCN1CCN(CCN2c3ccncc3Oc3ccc(Br)cc32)CC1
IC50 [7]: 0.9 nM

SMILES: Cc1cccc(-c2c(-c3cccc(OC(F)(F)F)c3)cc3n2[C@@H](CCN)CNC3=O)c1
IC50 [17]: 25000 nM | IC50 [18]: 7 nM

SMILES: CN1CCN(c2ccc(-n3cnc4ccc(/C=C5\SC(=S)NC5=O)cc43)cc2)CC1
IC50 [1]: 16000 nM | IC50 [24]: 16000 nM | IC50 [2]: 6400 nM

SMILES: NC(=O)c1c(O)cc(O)c2c1oc1cc(O)ccc12
IC50 [25]: 26 nM

Now from value to compound, other results behind:

IC50 [9]: 12700 nM
SMILES: COc1ccc(N2CCN(C(=O)c3sc4nc(C)c(Br)c(C)c4c3N)CC2)cc1
IC50 (MCF7 [8]): 107000 nM

IC50 [10]: 365 nM
SMILES: N#Cc1c(-c2ccccc2)cc(-c2ccccc2)nc1OCCCCC(=O)NO

IC50 [16]: 300 nM | IC50 [17]: 410 nM | IC50 [18]: 370 nM
SMILES: COc1ccc(/C=C/C(=O)/C=C2/C(=O)Nc3cc(Br)ccc32)cc1

IC50 [19]: 1740 nM | IC50 [20]: 4090 nM | IC50 [21]: 9110 nM | IC50 [22]: 3160 nM | IC50 [23]: 200 nM
SMILES: Cc1ccc(C(C)C)c(O)c1/C=N/N=C1/SC(CC(=O)O)C(=O)N1c1cccc2ccccc12 (configuration not stated)

IC50 [10]: 427 nM
SMILES: N#Cc1c(-c2ccccc2)cc(-c2ccccc2)nc1OCC(=O)NO

IC50 [16]: 1740 nM | IC50 [17]: 2460 nM | IC50 [18]: 1620 nM
SMILES: COc1ccc(/C=C/C(=O)CC2(O)C(=O)Nc3cc(Br)ccc32)cc1 (configuration not stated)
